Measurements reported in paper PMC3968008 (PLoS ONE, 2014).
≈ marks a conversion by molar mass, not a printed value. Entries after “also recorded” stand apart in the source; their conditions may differ. Ends that are not written are not given here.

Key:
[1] = system: S. aureus (ATCC29213); experiment: microbe, parasite or virus in culture; type: cell-based, Staphylococcus aureus; details: broth microdilution, 37°C, 24 or 48 hours, individual data from two independent experiments; for MIC: Staphylococcus aureus, ATCC29213
Description: (§1) Antimicrobial activity of the peptides was evaluated against Escherichia coli JCM 5491, Pseudomonas aeruginosa JCM 6119, Staphylococcus aureus JCM2874, Salmonella Typhimurium JCM1652, Acinetobacter baumannii JCM6841, Bacteroides fragilis JCM11019, Fusobacterium nucleatum JCM11025, Penicillium glabrum JCM22534, Fusarium solani JCM11383, Alternaria alternata JCM5800 (RIKEN, A research institution for basic and applied science in Japan), Micrococcus luteus NBRC13867, Bacillus subtilis NBRC3134, Propionibacterium acnes NBRC107605, Trichophyton mentagrophytes NBRC6124, Trichophyton rubrum NBRC9185, Candida krusei NBRC1395 (National Institute of Technology and Evaluation, Tokyo, Japan), Salmonella Enteritidis IID604 (The Institute of Medical Science, The University of Tokyo, Tokyo, Japan). Additionally, the clinical isolates (Drug-sensitive/resistant Pseudomonas aeruginosa and Staphylococcus aureus, Osaka University Hospital) and multidrug-resistant Acinetobacter baumannii (ATCC BAA-1605) were used. […] Serial two-fold dilutions of peptide were added to 0.1 ml of medium containing each type of bacteria and fungi at concentrations of 0.4×10^4 – 5×10^4 CFU/ml. The plates were incubated at 37°C with vigorous shaking for 24 or 48 hours. The MICs were determined as the lowest concentrations of peptide that inhibited visible bacterial growth.

[2] = system: interleukin-8 (IL-8) mRNA in NHDFs; experiment: IL-8 mRNA expression, real-time RT-PCR; type: cell-based, human; details: Wortmannin 100 nM, SR-0379 10 μg/ml
Description: Expression of the human IL-8 mRNA was measured using real-time reverse transcription polymerase chain reaction (RT-PCR). Total RNA was extracted from the tissue samples using ISOGEN reagent (NIPPON GENE, Toyama, Japan). Complementary DNA (cDNA) was synthesized using the Thermo Script RT-PCR System (Invitrogen, Carlsbad, CA). Relative gene-copy numbers for IL-8 mRNA and glyceraldehyde-3-phosphate dehydrogenase (GAPDH) were determined by real-time RT-PCR using TaqMan Gene Expression Assays (IL-8: Hs00174103_m1; GAPDH: 4352934). Absolute gene-copy numbers were normalized to GAPDH using a standard curve.

[3] = system: E. coli (ATCC25922); experiment: microbe, parasite or virus in culture; type: cell-based, Escherichia coli; details: for MIC: Escherichia coli, ATCC25922, broth microdilution, 37°C, 24 or 48 hours, individual data from two independent experiments; for MIC E. coli (ATCC25922): ATCC25922, 48 h
Description: as §1

[4] = system: Penicillium glabrum; experiment: MIC, broth microdilution; type: cell-based; details: fungus, individual data from two independent experiments
Description: (§2) Antimicrobial activity of the peptides was evaluated against Escherichia coli JCM 5491, Pseudomonas aeruginosa JCM 6119, Staphylococcus aureus JCM2874, Salmonella Typhimurium JCM1652, Acinetobacter baumannii JCM6841, Bacteroides fragilis JCM11019, Fusobacterium nucleatum JCM11025, Penicillium glabrum JCM22534, Fusarium solani JCM11383, Alternaria alternata JCM5800 (RIKEN, A research institution for basic and applied science in Japan), Micrococcus luteus NBRC13867, Bacillus subtilis NBRC3134, Propionibacterium acnes NBRC107605, Trichophyton mentagrophytes NBRC6124, Trichophyton rubrum NBRC9185, Candida krusei NBRC1395 (National Institute of Technology and Evaluation, Tokyo, Japan), Salmonella Enteritidis IID604 (The Institute of Medical Science, The University of Tokyo, Tokyo, Japan). […] Serial two-fold dilutions of peptide were added to 0.1 ml of medium containing each type of bacteria and fungi at concentrations of 0.4×10^4 – 5×10^4 CFU/ml. The plates were incubated at 37°C with vigorous shaking for 24 or 48 hours. The MICs were determined as the lowest concentrations of peptide that inhibited visible bacterial growth.

[5] = system: Fusarium solani; experiment: microbe, parasite or virus in culture; type: cell-based; details: Fusarium solani; fungus; broth microdilution; individual data from two independent experiments
Description: as §1

[6] = system: Alternaria alternata; experiment: microbe, parasite or virus in culture; type: cell-based; details: Alternaria alternata; fungus; broth microdilution; individual data from two independent experiments
Description: as §1

[7] = system: Trichophyton mentagrophytes; experiment: microbe, parasite or virus in culture; type: cell-based; details: Trichophyton mentagrophytes; fungus; broth microdilution; individual data from two independent experiments
Description: as §1

[8] = system: Trichophyton rubrum; experiment: microbe, parasite or virus in culture; type: cell-based; details: Trichophyton rubrum; fungus; broth microdilution; individual data from two independent experiments
Description: as §1

[9] = system: Candida krusei; experiment: microbe, parasite or virus in culture; type: cell-based; details: Pichia kudriavzevii; fungus; broth microdilution; individual data from two independent experiments
Description: as §1

[10] = system: bacteria; experiment: Antimicrobial spectrum, bacteria; type: cell-based
Description: as §2

[11] = peptide 500 μg/ml, 37°C, 3 or 10 minutes, acetonitrile/0.1% trifluoroacetate precipitation, HPLC, N = 2 (Fig. 1E)
Description: In vitro stability studies were performed by incubating the peptide with rat or human serum. Human sera (Pool of donors, 5 men and 5 women) were commercially purchased from KAC (Kyoto, Japan), which has been permitted only for experiment. We don't use the human biological specimens without the documented informed consent. Rat sera were collected from rats. The peptide (500 μg/ml) was added to serum (300 μL) and incubated at 37°C. A part of samples (90 μL) were taken, and the proteins were precipitated with acetonitrile containing 0.1% trifluoroacetate (200 μL). The precipitate was separated by centrifugation. The supernatants were analyzed by high-performance liquid chromatography (HPLC).

[12] = system: P. aeruginosa (ATCC27853); experiment: MIC, broth microdilution; type: cell-based, Pseudomonas aeruginosa; parameters: MIC P. aeruginosa (ATCC27853): unit not given beside the values; details: 24 or 48 hours, individual data from two independent experiments
[13] = pooled rat serum, 37°C, 10 and 60 minutes, MALDI-TOF MS; major metabolites 20 aa, 18 aa, 17 aa and 12 aa
Description: Rat sera were collected from rats. […] Samples were collected before incubation, after 10 minutes of incubation and after 60 minutes of incubation and were precipitated by the addition of an equivalent amount of acetonitrile containing 0.1% trifluoroacetate. The samples were centrifuged, and the supernatants were purified using ZipTip m-C18 (Millipore, MA). Sample solution was mixed with matrix solution (α-cyano 4-hydroxy cinnamic acid).

[14] = system: NHDFs; experiment: NHDFs proliferation, WST-1 assay; type: cell-based, human; details: preincubation with Akt inhibitor IV 1 μM (1 hour) or rapamycin 1 nM (2 hours), then SR-0379
Description: HUVECs, NHDFs and NHEKs were purchased from Kurabo (Osaka, Japan). The endothelial cells were maintained in HuMedia EB2 and the fibroblasts were maintained in Medium 106S. Both media were supplemented with 1% fetal bovine serum (FBS) as described previously. The epidermal keratinocytes were maintained in HuMedia KB2. Cells were incubated at 37°C in a humidified atmosphere of 95% air/5% CO2 with exchange of medium every 2 days. HUVECs were cultured in 96-well plates at a density of 10,000 cells/well and incubated for 48 hours at 37°C with AG30/5C or FGF2 (recombinant human FGF basic, R&D systems, Inc., Minneapolis, MN). The proliferation of HUVECs, NHDFs and NHEKs was analyzed using a WST-1 assay (Dojindo, Kumamoto, Japan). Tubule formation assay has recently been developed in which endothelial cells are co-cultured with fibroblasts. […] The tube-like structures were measured in terms of total tube length with the software (Angiogenesis Image Analyzer, Kurabo, Osaka Japan). Cell migration was evaluated using an Oris cell migration assay kit (Platypus Technologies, LLC., Madison, WI) according to the manufacturer's instructions. […] The number of cells that migrated into the detection zone was measured using a plate reader. […] At each time point, the lattices were digitally photographed from a fixed distance, and their areas were calculated using image analysis software. […]

[15] = system: Micrococcus luteus; experiment: microbe, parasite or virus in culture; type: cell-based; details: Micrococcus luteus; aerobe; broth microdilution; individual data from two independent experiments
Description: as §1

[16] = system: Bacillus subtilis; experiment: microbe, parasite or virus in culture; type: cell-based; details: Bacillus subtilis; aerobe; broth microdilution; individual data from two independent experiments
Description: as §2

[17] = system: Salmonella Enteritidis; experiment: microbe, parasite or virus in culture; type: cell-based; details: Salmonella enterica, ENTERITIDIS; aerobe; broth microdilution; individual data from two independent experiments
Description: as §2

[18] = system: Salmonella Typhimurium; experiment: microbe, parasite or virus in culture; type: cell-based; details: Salmonella enterica, TYPHIMURIUM; aerobe; broth microdilution; individual data from two independent experiments
Description: as §2

[19] = system: Acinetobacter baumannii; type: cell-based; details: aerobe; broth microdilution; individual data from two independent experiments
Description: as §2

[20] = system: Bacteroides fragilis; experiment: microbe, parasite or virus in culture; type: cell-based; details: Bacteroides fragilis; anaerobe; broth microdilution; individual data from two independent experiments
Description: as §1

[21] = system: Fusobacterium nucleatum; experiment: MIC, broth microdilution; type: cell-based; details: anaerobe, individual data from two independent experiments
Description: as §2

[22] = system: fungi; experiment: Antimicrobial spectrum, fungi; type: cell-based
Description: as §2

[23] = molecular target: T1, P2X7 (Homo sapiens, UniProt Q99572); experiment: Contribution of P2X7 receptors to the effect of SR-0379; type: cell-based; details: data not shown
T1 construct: we also examined the contribution of P2X7 receptors to the effect of SR-0379; endogenous in cells; probably NHDFs (human dermal fibroblasts, Kurabo)
T1 sequence (Q99572 whole entry): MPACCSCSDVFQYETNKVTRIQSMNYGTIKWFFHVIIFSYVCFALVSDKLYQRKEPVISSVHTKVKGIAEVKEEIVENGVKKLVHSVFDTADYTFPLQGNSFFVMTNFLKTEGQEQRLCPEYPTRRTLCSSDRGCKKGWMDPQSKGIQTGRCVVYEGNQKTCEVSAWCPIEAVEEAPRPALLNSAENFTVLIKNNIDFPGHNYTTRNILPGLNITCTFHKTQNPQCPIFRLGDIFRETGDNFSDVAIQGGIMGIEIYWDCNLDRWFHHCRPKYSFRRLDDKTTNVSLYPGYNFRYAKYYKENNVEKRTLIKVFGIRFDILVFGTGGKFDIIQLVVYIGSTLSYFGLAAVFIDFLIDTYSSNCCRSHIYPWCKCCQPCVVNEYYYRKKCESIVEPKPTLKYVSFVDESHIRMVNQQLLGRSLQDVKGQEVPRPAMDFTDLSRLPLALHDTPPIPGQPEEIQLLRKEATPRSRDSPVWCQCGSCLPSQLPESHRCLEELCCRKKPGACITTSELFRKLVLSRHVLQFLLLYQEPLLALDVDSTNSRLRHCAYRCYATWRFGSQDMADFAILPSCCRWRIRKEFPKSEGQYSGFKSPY

[24] = pooled rat serum; details: 37°C, up to 60 minutes

## Cc1onc(-c2ccccc2)c1C(=O)N[C@@H]1C(=O)N2[C@@H]1SC(C)(C)[C@@H]2C(=O)O [Oxacillin]
[1]
  MIC: 0.12 to 0.5 µg/mL (≈ 0.299 to 1.25 µM)

## COC[C@H]1OC(=O)c2coc3c2[C@@]1(C)C1=C(C3=O)[C@@H]2CCC(=O)[C@@]2(C)C[C@H]1OC(C)=O [Wortmannin]
[2]
  Effect of pretreatment on SR-0379-induced IL-8 mRNA expression: attenuated

## NC[C@H]1O[C@H](O[C@H]2[C@H](O)[C@@H](O[C@H]3O[C@H](CO)[C@@H](O)[C@H](N)[C@H]3O)[C@H](N)C[C@@H]2N)[C@H](N)C[C@@H]1O [Tobramycin, reference compound]
[3]
  MIC: 0.25 to 1 µg/mL (≈ 0.535 to 2.14 µM)
[1]
  MIC: 0.12 to 1 µg/mL (≈ 0.257 to 2.14 µM)

## C[C@@H]1[C@H](O)[C@@H](C)/C=C/C=C/C=C/C=C/C=C/C=C/C=C/[C@H](O[C@@H]2O[C@H](C)[C@@H](O)[C@H](N)[C@@H]2O)C[C@@H]2O[C@](O)(C[C@@H](O)C[C@@H](O)[C@H](O)CC[C@@H](O)C[C@@H](O)CC(=O)O[C@H]1C)C[C@H](O)[C@H]2C(=O)O [Amphotericin B, reference compound]
[4]
  MIC: 0.125 µg/mL (≈ 0.135 µM)
[5]
  MIC: 1 µg/mL (≈ 1.08 µM)
[6]
  MIC: 1 µg/mL (≈ 1.08 µM)
[7]
  MIC: 0.125 µg/mL (≈ 0.135 µM)
[8]
  MIC: 0.125 µg/mL (≈ 0.135 µM)
[9]
  MIC: 2 µg/mL (≈ 2.16 µM)
[10]
  Inhibitory activity against bacteria: failed to exhibit an inhibitory activity

## MLKLIFLHRLKRMRKRLKRK [SR-0007]
[3]
  MIC E. coli (ATCC25922): 64 µg/mL
[11]; human serum (pool of 5 men and 5 women) 300 μL
  Stability in human serum: rapidly degraded
[11]; rat serum 300 μL
  Stability in rat serum: rapidly degraded

## MLKLIFLHRLKRMRKRLKRKLRLWHRKRYK [AG30/5C]
[3]
  MIC E. coli (ATCC25922): 32 µg/mL
[12]; 37°C
  MIC P. aeruginosa (ATCC27853): 16/32
[1]
  MIC S. aureus (ATCC29213): 16/32
[13]
  Metabolic stability, cleavage in rat serum: cleaved by endopeptidases and exopeptidase at multiple sites

## CC[n+]1c(/C=C/N(C)c2ccccc2)n(-c2ccccc2)c2ccc(-c3nc4ccccc4s3)cc21.[I-] [Akt inhibitor IV]
[14]
  Effect on SR-0379-induced cell proliferation: attenuated

## O=C(N[C@H](CO)[C@H](O)c1ccc([N+](=O)[O-])cc1)C(Cl)Cl [Chloramphenicol, reference compound]
[15]
  MIC: 1 µg/mL (≈ 3.09 µM)
[16]
  MIC: 4 µg/mL (≈ 12.4 µM)
[17]
  MIC: 4 µg/mL (≈ 12.4 µM)
[18]
  MIC: 4 µg/mL (≈ 12.4 µM)
[19]
  MIC Acinetobacter baumannii: 16/32
[20]
  MIC: 1 µg/mL (≈ 3.09 µM)
[21]
  MIC: 0.25 µg/mL (≈ 0.774 µM)
[22]
  Inhibitory activity against fungi: failed to exhibit an inhibitory activity

## CCOc1ccc(Nc2ccc(/C(=C3C=C/C(=[N+](/CC)Cc4cccc(S(=O)(=O)[O-])c4)C=C/3C)c3ccc(N(CC)Cc4cccc(S(=O)(=O)O)c4)cc3C)cc2)cc1 [Brilliant Blue G]
[23]
  Inhibition of the effects of SR-0379 by P2X7 antagonist: failed to inhibit

## CO[C@H]1C[C@@H]2CC[C@@H](C)[C@@](O)(O2)C(=O)C(=O)N2CCCC[C@H]2C(=O)O[C@H]([C@H](C)C[C@@H]2CC[C@@H](O)[C@H](OC)C2)CC(=O)[C@H](C)/C=C(\C)[C@@H](O)[C@@H](OC)C(=O)[C@H](C)C[C@H](C)/C=C/C=C/C=C/1C [Rapamycin]
[14]
  Effect on SR-0379-induced cell proliferation: attenuated

## MLKLIFLHRLKRMRKRLKRKLRFWHRKRYK
[24]
  fragment found: MLKLIFLHRL KRMRKRLKRK (SR-0007), major; also recorded: MLKLIFLHRL KRMRKRLK, major; also recorded: MLKLIFLHRL KRMRKRL, major; also recorded: LHRL KRMRKRLK, major

## C[C@@H](O)[C@H]1C(=O)N2C(C(=O)O)=C(S[C@@H]3CN[C@H](C(=O)N(C)C)C3)[C@H](C)[C@H]12 [Meropenem, reference compound]
[3]
  MIC: 0.008 to 0.06 µg/mL (≈ 0.0209 to 0.156 µM)
[12]; Pseudomonas aeruginosa, ATCC27853, 37°C
  MIC: 0.25 to 1 µg/mL (≈ 0.652 to 2.61 µM)
[1]
  MIC: 0.03 to 0.12 µg/mL (≈ 0.0782 to 0.313 µM)
